These results are taken from patent US10793521B2, “Crystalline form II of dextral oxiracetam, preparation method therefor and use thereof” (CHONGQING RUNZE PHARMACEUTICAL COMPANY LIMITED, priority 2016, dated 2020).

Entries after “also recorded” stand apart in the source; their conditions may differ.

Holding throughout (format): physicochemical
One data set can be described thus: Solubility in water.
Data set [1] can be described thus: Accelerated test for crystalline form stability. The settings on record: 40° C.±2° C., relative humidity 75%±5%. The protocol: The accelerated test for crystalline form stability was performed in accordance with the provisions relating to the accelerated test of active pharmaceutical ingredients under “Guidelines for the Stability Test of Active Ingredient Pharmaceutical Ingredients and Pharmaceutical Preparations” of Pharmacopoeia 2010 Appendix XIXC. The crystalline form II of dextral oxiracetam was placed in a beaker and the test was carried out in a constant temperature and humidity chamber at a temperature of 40° C.±2° C. and a relative humidity of 75%±5%.

Data set [2] can be described thus: Dynamic vapor sorption (DVS) test with powder X-ray diffraction characterization. How it is done: The test parameters were given as follows: weighing: Ultra Digital Microbalance SMS Ultra Balance™; flow rate: N2, 200 sccm, System Control Software: DVS-Intrinsic control software ver. 1.0.3.1, Data Analysis Software: Isotherm (ISO) analysis suite. 22.4 mg of sample of crystalline form II of dextral oxiracetam was weighed for the test, dried at RH=0%, the mass was balanced to ensure removal of moisture adsorbed on the surface, then placed on metal sample tray, and dried at 0% RH for 2 h. The test was performed at a constant temperature of 25° C., and the relative humidity (RH %) was controlled to vary cyclically from 0% to 90% to 0% RH with a 10% gradient. The variation of the sample weight with humidity was measured, which was combined with powder X-ray diffraction characterization to observe the effect of humidity on crystalline form transformation of the sample.

Molecule `NC(=O)CN1C[C@H](O)CC1=O` [dextral oxiracetam] had a solubility in the data set “Solubility in water” not below 100 mg/mL. Besides, the “change in crystalline form” value in data set [1] (after 2 h), in data set [1] (after 10 days) and in data set [1] (after 15 days) was “no change” throughout. Besides, the “crystal transformation in accelerated stability test” value in data set [1] (between 2 h and 15 d) is “did not undergo crystal transformation”. Moreover, the “crystalline form of the sample after humidity cycle” value in data set [2] (25° C., relative humidity cycled 0% to 90% to 0% RH with a 10% gradient) was “still the crystalline form II of dextral oxiracetam”. Moreover, the “crystal transformation / stability to humidity” value in data set [2] (room temperature, relative humidity of 0-95%) is on record as “do not undergo crystal transformation; also recorded: no crystal transformation occurs”.
